Where two headings read alike, the source gives them in different places.
Legend:
BACE1 = biological target: T1, BACE1 (Homo sapiens, UniProt P56817); assay: SH-SY5YAPP695Wt Whole Cell Assay (Abeta ELISA); assay type: cell-based; settings: SH-SY5YAPP695Wt cells, 24 hours
T1 construct: endogenous in cells; host or cells: SH-SY5Y (ATCC CRL2266) stably expressing human APP695Wt
Description: (§1) To assess BACE1 selectivity over BACE2, the test compound is evaluated in FRET-based enzymatic assays using specific substrates for BACE1 and BACE2 as described below. For in vitro enzymatic and cellular assays, the test compound is prepared in DMSO to make up a 10 mM stock solution. The stock solution is serially diluted in DMSO to obtain a ten-point dilution curve with final compound concentrations ranging from 10 μM to 0.05 nM in a 96-well round-bottom plate before conducting the in vitro enzymatic and whole cell assays.
The routine whole cell assay for the measurement of inhibition of BACE1 activity utilizes the human neuroblastoma cell line SH-SY5Y (ATCC Accession No. CRL2266) stably expressing a human APP695Wt cDNA. Cells are routinely used up to passage number 6 and then discarded.
SH-SY5YAPP695Wt cells are plated in 96 well tissue culture plates at 5.0×10^4 cells/well in 200 μL culture media (50% MEM/EBSS and Ham's F12, 1× each sodium pyruvate, non-essential amino acids and Na bicarbonate containing 10% FBS). The following day, media is removed from the cells, fresh media added then incubated at 37° C. for 24 hours in the presence/absence of test compound at the desired concentration range.
At the end of the incubation, conditioned media are analyzed for evidence of beta-secretase activity by analysis of Abeta peptides 1-40 and 1-42 by specific sandwich ELISAs. […]

beta-secretase = biological target: T2, beta-secretase (Mus musculus, UniProt P56818); assay: In Vivo Inhibition of Beta-Secretase (brain Abeta 1-x, PDAPP mice); settings: young female PDAPP mice, three hours, vs vehicle; for Abeta 1-x peptide levels reduced in brain cortex: p<0.01
T2 construct: from tissue; host or cells: brain (hippocampus, cortex) of young female PDAPP mice, in vivo
T2 sequence (P56818 46-501): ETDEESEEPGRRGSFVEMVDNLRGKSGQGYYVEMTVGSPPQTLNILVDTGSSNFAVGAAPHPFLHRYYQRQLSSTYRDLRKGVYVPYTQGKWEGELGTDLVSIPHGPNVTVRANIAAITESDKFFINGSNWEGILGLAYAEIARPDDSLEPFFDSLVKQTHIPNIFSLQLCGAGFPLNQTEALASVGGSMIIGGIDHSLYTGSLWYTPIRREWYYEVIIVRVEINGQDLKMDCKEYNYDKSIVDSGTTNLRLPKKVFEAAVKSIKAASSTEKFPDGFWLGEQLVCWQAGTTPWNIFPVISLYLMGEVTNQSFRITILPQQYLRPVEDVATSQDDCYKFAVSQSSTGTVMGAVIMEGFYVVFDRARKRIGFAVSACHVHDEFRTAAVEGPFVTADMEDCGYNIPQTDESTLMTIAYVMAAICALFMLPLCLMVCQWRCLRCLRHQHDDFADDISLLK
Text: Several animal models, including mouse, guinea pig, dog, and monkey, may be used to screen for inhibition of beta-secretase activity in vivo following compound treatment. Animals used in this invention can be wild type, transgenic, or gene knockout animals. For example, the PDAPP mouse model, prepared as described in Games et al., Nature 373, 523-527 (1995), and other non-transgenic or gene knockout animals are useful to analyze in vivo inhibition of Abeta and sAPPbeta production in the presence of inhibitory compounds. Generally, 2 month old PDAPP mice, gene knockout mice or non-transgenic animals are administered compound formulated in vehicles, such as corn oil, beta-cyclodextran, phosphate buffers, PHARMASOLVE®, or other suitable vehicles via oral, subcutaneous, intra-venous, feeding, or other route of administration. One to twenty-four hours following the administration of compound, animals are sacrificed, and brains are removed for analysis of Abeta 1-x. “Abeta 1-x” as used herein refers to the sum of Abeta species that begin with residue 1 and end with a C-terminus greater than residue 28. This detects the majority of Abeta species and is often called “total Abeta”. Total Abeta peptides (Abeta 1-x) levels are measured by a sandwich ELISA, using monoclonal 266 as a capture antibody and biotinylated 3D6 as reporting antibody. (See May, et al., Journal of Neuroscience, 31, 16507-16516 (2011)).
For acute studies, compound or appropriate vehicle is administered and animals are sacrificed at about 3 hours after dosing. Brain tissue, is obtained from selected animals and analyzed for the presence of Abeta 1-x. After chronic dosing brain tissues of older APP transgenic animals may also be analyzed for the amount of beta-amyloid plaques following compound treatment.
For Example 1, three hours following a 3, 10, and 30 mg/kg oral dose of the compound to young female PDAPP mice, Abeta 1-x peptide levels are reduced approximately 22%, 42%, and 51% in brain hippocampus and 26%, 43%, and 59% in brain cortex p<0.01, compared to vehicle-treated mice.

human BACE1(1-460):Fc = biological target: T3, human BACE1(1-460):Fc (Homo sapiens, UniProt P56817); assay: BACE1 FRET Assay; assay type: biochemical; settings: purified recombinant huBACE1:Fc, n=6, mean±SEM
T3 construct: made in house; host or cells: HEK293 (transient, secreted into conditioned media, Protein A purified)
T3 sequence (P56817 22-460): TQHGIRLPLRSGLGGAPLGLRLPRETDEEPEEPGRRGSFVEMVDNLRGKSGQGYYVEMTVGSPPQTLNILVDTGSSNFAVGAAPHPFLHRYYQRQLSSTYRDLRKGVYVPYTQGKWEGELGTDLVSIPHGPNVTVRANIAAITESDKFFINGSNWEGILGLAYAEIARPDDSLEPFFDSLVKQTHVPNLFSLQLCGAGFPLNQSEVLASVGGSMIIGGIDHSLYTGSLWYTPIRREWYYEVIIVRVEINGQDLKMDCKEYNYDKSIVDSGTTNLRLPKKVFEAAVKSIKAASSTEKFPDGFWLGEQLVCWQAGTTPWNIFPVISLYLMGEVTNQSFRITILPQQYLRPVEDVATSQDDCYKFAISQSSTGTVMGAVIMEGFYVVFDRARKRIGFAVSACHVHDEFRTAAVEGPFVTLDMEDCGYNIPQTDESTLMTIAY
Description: as §1
Human BACE1 (accession number: AF190725) and human BACE2 (accession number: AF 204944) are cloned from total brain cDNA by RT-PCR. The nucleotide sequences corresponding to amino acid sequences #1 to 460 are inserted into the cDNA encoding human IgG1 (Fc) polypeptide (Vassar et al., Science, 286, 735-742 (1999)). […]
(§2) Conditioned media of HEK293 cell transiently transfected with huBACE1:Fc or huBACE2:Fc cDNA are collected. […] The purity of final product is assessed by electrophoresis in 4-20% Tris-Glycine SDS-PAGE. […]
Serial dilutions of the test compounds are prepared as described above. […] The RFU of the mixture at time 0 is recorded at excitation wavelength 355 nm and emission wavelength 460 nm, after brief mixing on a plate shaker. […] The RFU at the end of incubation is recorded with the same excitation and emission settings used at time 0. […]

human BACE2 (1-460):Fc = biological target: T4, human BACE2 (1-460):Fc (Homo sapiens, UniProt Q9Y5Z0); assay: BACE2 TMEM27 FRET Assay; assay type: biochemical
T4 construct: made in house; host or cells: HEK293 (transient, secreted into conditioned media, Protein A purified)
T4 sequence (Q9Y5Z0 21-460): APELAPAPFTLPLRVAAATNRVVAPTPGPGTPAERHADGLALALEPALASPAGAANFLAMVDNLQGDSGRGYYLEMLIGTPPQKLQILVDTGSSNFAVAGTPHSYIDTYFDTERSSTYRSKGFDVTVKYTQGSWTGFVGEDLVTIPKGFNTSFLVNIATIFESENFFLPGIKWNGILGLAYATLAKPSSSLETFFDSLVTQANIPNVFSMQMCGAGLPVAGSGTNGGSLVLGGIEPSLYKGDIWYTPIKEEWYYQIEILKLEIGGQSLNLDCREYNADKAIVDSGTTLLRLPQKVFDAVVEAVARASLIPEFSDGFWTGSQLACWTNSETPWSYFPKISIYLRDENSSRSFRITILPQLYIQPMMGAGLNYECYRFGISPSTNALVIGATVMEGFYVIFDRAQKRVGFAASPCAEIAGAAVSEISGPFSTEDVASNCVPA
Description: as §1
Human BACE1 (accession number: AF190725) and human BACE2 (accession number: AF 204944) are cloned from total brain cDNA by RT-PCR. […]
as §2
Transmembrane protein 27 (TMEM27) (Accession Number NM_020665), also known as Collectrin) is a recently described substrate for BACE2, but not BACE1 (Esterhazy, et al, Cell Metabolism, 14, 365-377 (2011)). […] The RFU of the mixture at time 0 is recorded at excitation wavelength 430 nm and emission wavelength 535 nm. […] The RFU at the end of incubation is recorded with the same excitation and emission settings used at time 0. […]

T1 sequence (P56817 46-501): as the sequence (P56818 46-501) above, with S6P, I162V, I165L, T180S, A182V, V340I, A393L, H443Q counted along it

Q: What does the source list for `NC1=N[C@@]2(c3cc(NC(=O)c4cnc(-n5cncn5)cn4)ccc3F)C[C@@H](OC3CC3)C[C@H]2CS1` [Example 1, N-[3-[(4aR,6S,7aS)-2-Amino-6-(cyclopropoxy)-4a,5,6,7-tetrahydro-4H-cyclopenta[d][1,3]thiazin-7a-yl]-4-fluoro-phenyl]-5-(1,2,4-triazol-1-yl)pyrazine-2-carboxamide]?
A: IC50 (BACE1; n=3, mean±SEM, read-out: IC50 SH-SY5YAPP695Wt A-beta (1-42) ELISA): 0.43 ± 0.08 nM; IC50 (BACE1; n=4, mean±SEM, read-out: IC50 SH-SY5YAPP695Wt A-beta (1-40) ELISA): 0.38 ± 0.14 nM; Abeta 1-x peptide levels reduced in brain hippocampus (beta-secretase; 3 mg/kg oral): approximately 22%; Abeta 1-x peptide levels reduced in brain cortex (beta-secretase; 3 mg/kg oral): ~26%; Abeta 1-x peptide levels reduced in brain hippocampus (beta-secretase; 10 mg/kg oral): ~42%; Abeta 1-x peptide levels reduced in brain cortex (beta-secretase; 10 mg/kg oral): ~43%; Abeta 1-x peptide levels reduced in brain hippocampus (beta-secretase; 30 mg/kg oral): ~51%; Abeta 1-x peptide levels reduced in brain cortex (beta-secretase; 30 mg/kg oral): ~59%; IC50 (human BACE1(1-460):Fc): 0.955 ± 0.093 nM; IC50 (human BACE2 (1-460):Fc; huBACE2:Fc, TMEM27 FRET substrate, n=4, mean±SEM): 87.3 ± 11.1 nM; ratio of BACE2 IC50 (TMEM27 FRET) to BACE1 IC50 (FRET) (human BACE2 (1-460):Fc; selectivity for BACE1 over BACE2): about 91 fold

Source: patent US9938266B2, “Selective BACE1 inhibitors” (Eli Lilly and Company, priority 2015, dated 2018)
